Source: patent publication US12257347B2, “Pharmaceutical composition comprising meta arsenite and method of manufacture” (KOMIPHARM INT[…] PTY LTD, priority 2018, dated 2025)

How the values were obtained:
[1] = Solubility of the supplied SMA drug substance; format: physicochemical
Source text: (§1) Sodium meta-arsenite (“SMA”) was obtained from Sigma Aldrich Fine Chemicals. […]

[2] = Hygroscopicity (moisture uptake) of the supplied SMA drug substance; format: physicochemical
Source text: as §1

O=[As][O-].[Na+] [SMA, sodium meta-arsenite]
Solubility [1]: Approx. 950 mg/mL
Hygroscopicity (moisture uptake) ([2]; at 75% RH): ~40% at 75% RH
Hygroscopicity (moisture uptake) ([2]; at 80% RH): >80% at 80% RH
Hygroscopicity (moisture uptake) ([2]; at 90% RH): >130% at 90% RH
